Test results reported in patent publication US12662469B2 (SIRONAX LTD, priority 2018, dated 2026).
Where two headings read alike, the source gives them in different places.

System: Cell Necrosis
Assay: Cell necrosis assay / cell viability assay (necrosis inhibitor activity)
Assay type: cell-based
[1] = necrosis inhibitor activity, compounds outside 14-191, read-out: EC50
[2] = necrosis inhibitor activity, EC data for 14-191 extrapolated, read-out: EC50

| SMILES | EC50 [1] [nM] | EC50 [2] [nM] | also measured |
| --- | --- | --- | --- |
| O=C(N1CC(Oc2ccc(OCc3ccccc3)cc2)C1)N1N=CC[C@H]1c1cc(F)cc(F)c1 [Compound 214, (S)-(3-(4-(benzyloxy)phenoxy)zetidine-1-yl)(5-(3,5-difluorophenyl)-4,5-dihydro-1H-pyrazol-1-yl)methanone] | 1 to 1000 |  |  |
| CC1CCCCN1C(=O)N1N=CCC1c1ccccc1 (stereo not shown) [Compound 8, (2-methylpiperidin-1-yl)(5-phenyl-4,5-dihydro-1H-pyrazol-1-yl)methanone] | 1000 to 10000 |  |  |
| O=C1Cc2cnc(N3CCN(C(=O)N4N=CC[C@H]4c4cc(F)cc(F)c4)CC3)nc2N1 [Compound 386, (S)-2-(4-(5-(3,5-difluorophenyl)-4,5-dihydro-1H-pyrazole-1-carbonyl)piperazin-1-yl)-5,7-dihydro-6H-pyrrolo[2,3-d]pyrimidin-6-one] | 1 to 1000 |  |  |
| O=C(N1CC(Oc2ccc(F)cc2)C1)N1N=CC[C@H]1c1cc(F)cc(F)c1 [Compound 143] |  | 1 to 1000 |  |
| O=C(N1CC(=Cc2ccc(F)cc2)C1)N1N=CCC1c1ccccc1 (stereo not shown) [Compound 46, (3-(4-fluorobenzylidene)azetidin-1-yl)(5-phenyl-4,5-dihydro-1H-pyrazol-1-yl)methanone] |  | 1 to 1000 |  |
| N#Cc1cc(O[C@@H]2CCN(C(=O)N3N=CC[C@H]3c3cc(F)cc(F)c3)C2)ccn1 [Compound 340, 4-(((R)-1-((S)-5-(3,5-difluorophenyl)-4,5-dihydro-1H-pyrazole-1-carbonyl)pyrrolidin-3-yl)oxy)picolinonitrile] | 1 to 1000 |  |  |
| N#Cc1ccc(C=C2CN(C(=O)N3N=CC[C@H]3c3cncc(F)c3)C2)c(F)n1 [Compound 324, (S)-6-fluoro-5-((1-(5-(5-fluoropyridin-3-yl)-4,5-dihydro-1H-pyrazole-1-carbonyl)azetidin-3-ylidene)methyl)picolinonitrile] | 1 to 1000 |  |  |
| O=C(N1CC(Oc2ccc(F)cn2)C1)N1N=CCC1c1ccccc1 (stereo not shown) [Compound 72, (3-((5-fluoropyridin-2-yl)oxy)azetidin-1-yl)(5-phenyl-4,5-dihydro-1H-pyrazol-1-yl)methanone] |  | 1 to 1000 |  |
| CN(C(=O)N1N=CCC1c1ccccc1)C1CCCCC1 (stereo not shown) [Compound 12, N-cyclohexyl-N-methyl-5-phenyl-4,5-dihydro-1H-pyrazole-1-carboxamide] | 1000 to 10000 |  |  |
| Cc1cnc(N2CCN(C(=O)N3N=CCC3c3ccccc3)CC2)nc1 (stereo not shown) [Compound 87, (4-(5-methylpyrimidin-2-yl)piperazin-1-yl)(5-phenyl-4,5-dihydro-1H-pyrazol-1-yl)methanone] |  | 1 to 1000 |  |
| Cc1nnc(N2CCN(C(=O)N3N=CC[C@H]3c3cc(F)cc(F)c3)CC2)s1 [Compound 384, (S)-(5-(3,5-difluorophenyl)-4,5-dihydro-1H-pyrazol-1-yl)(4-(5-methyl-1,3,4-thiadiazol-2-yl)piperazin-1-yl)methanone] | 1 to 1000 |  |  |
| CCC1Oc2cc(F)c(OC3CN(C(=O)N4N=CC[C@H]4c4cc(F)cc(F)c4)C3)cc2NC1=O (stereo partly drawn) [Compound 250, 6-((1-((S)-5-(3,5-difluorophenyl)-4,5-dihydro-1H-pyrazole-1-carbonyl)azetidin-3-yl)oxy)-2-ethyl-7-fluoro-2H-benzo[b][1,4]oxazin-3(4H)-one] | 1 to 1000 |  |  |
| NC(=O)c1ccc(OC2CN(C(=O)N3N=CCC3c3cc(F)cc(F)c3)C2)cc1Cl (stereo not shown) [Compound 227, 2-chloro-4-((1-(5-(3,5-difluorophenyl)-4,5-dihydro-1H-pyrazole-1-carbonyl)azetidin-3-yl)oxy)benzamide] | 1 to 1000 |  |  |
| NC(=O)c1cc(O[C@@H]2CCN(C(=O)N3N=CC[C@H]3c3cc(F)cc(F)c3)C2)ncn1 [Compound 361] | 1 to 1000 |  |  |
| O=C(c1ccccc1)N1CCN(C(=O)N2N=CCC2c2ccccc2)CC1 (stereo not shown) [Compound 95, (4-benzoylpiperazin-1-yl)(5-phenyl-4,5-dihydro-1H-pyrazol-1-yl)methanone] |  | 1000 to 10000 |  |
| O=C(N1CCN(c2ncccn2)CC1)N1N=CCC1c1ccccc1 (stereo not shown) [Compound 84, (5-phenyl-4,5-dihydro-1H-pyrazol-1-yl)(4-(pyrimidin-2-yl)piperazin-1-yl)methanone] |  | 1 to 1000 |  |
| N#Cc1ccc(OC2CN(C(=O)N3N=CCC3c3cc(F)cc(F)c3)C2)cc1F (stereo not shown) [Compound 137, 4-((1-(5-(3,5-difluorophenyl)-4,5-dihydro-1H-pyrazole-1-carbonyl)azetidin-3-yl)oxy)-2-fluorobenzonitrile] |  | 1 to 1000 |  |
| O=C(N1CC(=Cc2cc3[nH]nc(F)c3cc2F)C1)N1N=CCC1c1ccccc1 (stereo not shown) [Compound 302, (3-((3,5-difluoro-1H-indazol-6-yl)methylene)azetidin-1-yl)(5-phenyl-4,5-dihydro-1H-pyrazol-1-yl)methanone] | 1 to 1000 |  |  |
| O=C(Nc1nc(N2CCN(C(=O)N3N=CC[C@H]3c3cc(F)cc(F)c3)CC2)ncc1F)C1CCCC1 [Compound 325, (S)—N-(2-(4-(5-(3,5-difluorophenyl)-4,5-dihydro-1H-pyrazole-1-carbonyl)piperazin-1-yl)-5-fluoropyrimidin-4-yl)cyclopentanecarboxamide] | 1 to 1000 |  |  |
| O=C(N1CC(Oc2ccc3cn[nH]c3c2)C1)N1N=CC[C@H]1c1cc(F)cc(F)c1 [Compound 207] | 1 to 1000 |  |  |

| SMILES | EC50 [1] [nM] | EC50 [2] [nM] | also measured |
| --- | --- | --- | --- |
| N#Cc1ccc(C=C2CN(C(=O)N3N=CC[C@H]3c3cc(F)cc(F)c3)C2)c(F)n1 [Compound 323, (S)-5-((1-(5-(3,5-difluorophenyl)-4,5-dihydro-1H-pyrazole-1-carbonyl)azetidin-3-ylidene)methyl)-6-fluoropicolinonitrile] | 1 to 1000 |  |  |
| O=C(N1CC(=Cc2cc3[nH]nc(F)c3cc2F)C1)N1N=CC[C@H]1c1cncc(F)c1 [Compound 322, (S)-(3-((3,5-difluoro-1H-indazol-6-yl)methylene)azetidin-1-yl)(5-(5-fluoropyridin-3-yl)-4,5-dihydro-1H-pyrazol-1-yl)methanone] | 1 to 1000 |  |  |
| N#Cc1cc(OC2CN(C(=O)N3N=CC[C@H]3c3cc(F)cc(F)c3)C2)ncn1 [Compound 215, (S)-6-((1-(5-(3,5-difluorophenyl)-4,5-dihydro-1H-pyrazole-1-carbonyl)115zetidine-3-yl)oxy)pyrimidine-4-carbonitrile] | 1 to 1000 |  |  |
| O=C(N1CC(Oc2cc(F)ccc2F)C1)N1N=CCC1c1ccccc1 (stereo not shown) [Compound 128, (3-(2,5-difluorophenoxy)azetidin-1-yl)(5-phenyl-4,5-dihydro-1H-pyrazol-1-yl)methanone] |  | 1 to 1000 |  |
| O=C(N1CC(=Cc2cc3[nH][nH]c(=O)c3cc2F)C1)N1N=CC[C@H]1c1cc(F)cc(F)c1 [Compound 286, (S)-6-((1-(5-(3,5-difluorophenyl)-4,5-dihydro-1H-pyrazole-1-carbonyl)azetidin-3-ylidene)methyl)-5-fluoro-1H-315-indazol-3-one] | 1 to 1000 |  |  |
| N#Cc1cncc([C@@H]2CC=NN2C(=O)N2CC(Oc3cc4c(cc3F)OCC(=O)N4)C2)c1 [Compound 197, (S)-5-(1(3-((7-fluoro-3-oxo-3,4-dihydro-2H-benzo[b][1,4]oxazin-6-yl)oxy)azetidine-1-carbonyl)-4,5-dihydro-1H-pyrazol-5-yl)nicotinonitrile] | 1 to 1000 |  |  |
| O=C(N1CCN(c2cncnc2)CC1)N1N=CCC1c1ccccc1 (stereo not shown) [Compound 99, (5-phenyl-4,5-dihydro-1H-pyrazol-1-yl)(4-(pyrimidin-5-yl)piperazin-1-yl)methanone] |  | 1000 to 10000 |  |
| O=C(N1CC(Oc2ccc3ccccc3c2)C1)N1N=CC[C@H]1c1cc(F)cc(F)c1 [Compound 203, (S)(5-(3,5-difluorophenyl)-4,5-dihydro-1H-pyrazol-1-yl)(3-(naphthalen-2-yloxy)azetidin-1-yl)methanone] |  |  | EC50: 1 to 1000 nM |
| CC(=O)Nc1ccnc(N2CCN(C(=O)N3N=CC[C@H]3c3cc(F)cc(F)c3)CC2)n1 [Compound 225] | 1 to 1000 |  |  |
| O=C(N1CC(=Cc2ccc(F)cc2F)C1)N1N=CCC1c1cc(F)cc(F)c1 (stereo not shown) [Compound 55, (3-(2,4-difluorobenzylidene)azetidin-1-yl)(5-(3,5-difluorophenyl)-4,5-dihydro-1H-pyrazol-1-yl)methanone] |  | 1 to 1000 |  |
| O=C(N1CC(Cc2ccc(F)cc2F)C1)N1OCC[C@H]1c1ccccc1 [Compound 82, (S)-(3-(2,4-difluorobenzyl)azetidin-1-yl)(3-phenylisoxazolidin-2-yl)methanone] |  | 1 to 1000 |  |
| O=C(c1cc2sc(OC3CN(C(=O)N4N=CC[C@H]4c4cc(F)cc(F)c4)C3)nc2[nH]1)N1CCC1 [Compound 261, (S)-azetidin-1-yl(2-((1-(5-(3,5-difluorophenyl)-4,5-dihydro-1H-pyrazole-1-carbonyl)azetidin-3-yl)oxy)-4H-pyrrolo[2,3-d]thiazol-5-yl)methanone] | 1 to 1000 |  |  |
| O=C(N1CC(Oc2ccc(F)nc2F)C1)N1N=CC[C@H]1c1cc(F)cc(F)c1 [Compound 145] |  | 1 to 1000 |  |
| O=C(N1CC(Oc2ccc(=O)[nH]c2)C1)N1N=CCC1c1cc(F)cc(F)c1 (stereo not shown) [Compound 186] |  | 1 to 1000 |  |
| O=C(NC1CCC(c2ccccc2)C1)N1N=CCC1c1ccccc1 (stereo not shown) [Compound 21, 5-phenyl-N-(3-phenylcyclopentyl)-4,5-dihydro-1H-pyrazole-1-carboxamide] |  | 1 to 1000 |  |
| CC1CN(C(=O)N2N=CCC2c2ccccc2)C1 (stereo not shown) [Compound 4, (3-methylazetidin-1-yl)(5-phenyl-4,5-dihydro-1H-pyrazol-1-yl)methanone] | 1 to 1000 |  |  |
| O=C(N1CC(Oc2ccc3ccc(=O)[nH]c3c2)C1)N1N=CCC1c1cc(F)cc(F)c1 (stereo not shown) [Compound 204, 7-((1-(5-(3,5-difluorophenyl)-4,5-dihydro-1H-pyrazole-1-carbonyl)azetidin-3-yl)oxy)quinolin-2(1H)-one] | 1 to 1000 |  |  |
| Cc1ccccc1CC1CN(C(=O)N2N=CCC2c2ccccc2)C1 (stereo not shown) [Compound 37, (3-(2-methylbenzyl)azetidin-1-yl)(5-phenyl-4,5-dihydro-1H-pyrazol-1-yl) methanone] |  | 1 to 1000 |  |
| O=C1CCc2cc(F)c(OC3CN(C(=O)N4N=CC[C@H]4c4cc(F)cc(F)c4)C3)cc2N1 [Compound 202, (S)-7-((1-(5-(3,5-difluorophenyl)-4,5-dihydro-1H-pyrazole-1-carbonyl)azetidin-3-yl)oxy)-6-fluoro-3,4-dihydroquinolin-2(1H)-one] | 1 to 1000 |  |  |
| O=C(N1CC(Oc2ccc(F)c(F)c2)C1)N1N=CCC1c1ccccc1 (stereo not shown) [Compound 66, (3-(3,4-difluorophenoxy)azetidin-1-yl)(5-phenyl-4,5-dihydro-1H-pyrazol-1-yl)methanone] |  | 1 to 1000 |  |
